Measured values reported in the supplement of paper PMC10307832.

Experiments:
Assay in all cases: relative viability (nuclei count vs DMSO), 5 days (fraction); higher = more cells survive
LCLC-97TM1 = tested on: LCLC-97TM1
How it was run: (§1)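 Relative viability divides the nuclei count in treated wells by that in vehicle wells. Lung cancer cell lines were seeded in 1536-well plates, dosed by pin tool the next day, and fixed and stained after 5 days in one step with final 0.05% Triton X-100, 1% formaldehyde and 1 ug/ml Hoechst. Dosing was a single drug or a fixed anchor-drug dose plus five library-drug doses (not always all listed) in √10 steps, and values are medians of duplicate plates imaged at 4×.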

NCI-H23 = tested on: NCI-H23
How it was run: as §1

NCI-H441 = tested on: NCI-H441
How it was run: as §1

LU99A = tested on: LU99A
How it was run: as §1

NCI-H322M = tested on: NCI-H322M
How it was run: as §1

NCI-H460 = tested on: NCI-H460
How it was run: as §1

LOU-NH91 = tested on: LOU-NH91
How it was run: as §1

NCI-H2126 = tested on: NCI-H2126
How it was run: as §1

NCI-H1915 = tested on: NCI-H1915
How it was run: as §1

PC-3 [JPC-3] = tested on: PC-3 [JPC-3]
How it was run: as §1

NCI-H1755 = tested on: NCI-H1755
How it was run: as §1

BEN = tested on: BEN
How it was run: as §1

HARA = tested on: HARA
How it was run: as §1

NCI-H1395 = tested on: NCI-H1395
How it was run: as §1

NCI-H2170 = tested on: NCI-H2170
How it was run: as §1

NCI-H1944 = tested on: NCI-H1944
How it was run: as §1

NCI-H650 = tested on: NCI-H650
How it was run: as §1

A-427 = tested on: A-427
How it was run: as §1

SK-LU-1 = tested on: SK-LU-1
How it was run: as §1

NCI-H1793 = tested on: NCI-H1793
How it was run: as §1

NCI-H2023 = tested on: NCI-H2023
How it was run: as §1

NCI-H1666 = tested on: NCI-H1666
How it was run: as §1

LXF-289 = tested on: LXF-289
How it was run: as §1

Work on `Cc1cnc(-c2cnc(NCCNc3ccc(C#N)cn3)nc2-c2ccc(Cl)cc2Cl)[nH]1` + Cc1nc(NC(=O)N2CCC[C@H]2C(N)=O)sc1-c1ccnc(C(C)(C)C(F)(F)F)c1 [Alpelisib] (partner 2 µM) yielded a relative viability (LCLC-97TM1; first compound 0.08 µM) of 0.28, a relative viability (LCLC-97TM1; first compound 0.253 µM) of 0.176 and a relative viability (LCLC-97TM1; first compound 0.8 µM) of 0.251. For the same compound, the relative viability (LCLC-97TM1; first compound 2.53 µM) was 0.323, the relative viability (NCI-H23; first compound 0.08 µM) was 0.819 and the relative viability (NCI-H23; first compound 0.253 µM) was 0.591. It also gave a relative viability (NCI-H23; first compound 0.8 µM) of 0.818, a relative viability (NCI-H23; first compound 2.53 µM) of 0.72 and a relative viability (NCI-H441; first compound 0.08 µM) of 0.759. The relative viability (NCI-H441; first compound 0.253 µM) was 0.668, the relative viability (NCI-H441; first compound 0.8 µM) was 0.858 and the relative viability (NCI-H441; first compound 2.53 µM) was 0.7. For the same compound, the relative viability (LU99A; first compound 0.08 µM) was 0.606, the relative viability (LU99A; first compound 0.253 µM) was 0.548 and the relative viability (LU99A; first compound 0.8 µM) was 0.557. The relative viability (LU99A; first compound 2.53 µM) was 0.516, the relative viability (NCI-H322M; first compound 0.08 µM) was 0.773 and the relative viability (NCI-H322M; first compound 0.253 µM) was 0.754. It also gave a relative viability (NCI-H322M; first compound 0.8 µM) of 0.709, a relative viability (NCI-H322M; first compound 2.53 µM) of 0.733 and a relative viability (NCI-H460; first compound 0.08 µM) of 0.552. It also gave a relative viability (NCI-H460; first compound 0.253 µM) of 0.475, a relative viability (NCI-H460; first compound 0.8 µM) of 0.61 and a relative viability (NCI-H460; first compound 2.53 µM) of 0.68. It also gave a relative viability (LOU-NH91; first compound 0.08 µM) of 0.852, a relative viability (LOU-NH91; first compound 0.253 µM) of 0.729 and a relative viability (LOU-NH91; first compound 0.8 µM) of 0.675. The relative viability (LOU-NH91; first compound 2.53 µM) was 0.715, the relative viability (NCI-H2126; first compound 0.08 µM) was 0.725 and the relative viability (NCI-H2126; first compound 0.253 µM) was 0.756. The relative viability (NCI-H2126; first compound 0.8 µM) was 0.669, the relative viability (NCI-H2126; first compound 2.53 µM) was 0.766 and the relative viability (NCI-H1915; first compound 0.08 µM) was 1.08. For the same compound, the relative viability (NCI-H1915; first compound 0.8 µM) was 1.09, the relative viability (NCI-H1915; first compound 2.53 µM) was 1.01 and the relative viability (PC-3 [JPC-3]; first compound 0.08 µM) was 1. It also gave a relative viability (PC-3 [JPC-3]; first compound 0.253 µM) of 0.934, a relative viability (PC-3 [JPC-3]; first compound 0.8 µM) of 1.02 and a relative viability (PC-3 [JPC-3]; first compound 2.53 µM) of 1.01. For the same compound, the relative viability (NCI-H1755; first compound 0.08 µM) was 0.998, the relative viability (NCI-H1755; first compound 0.253 µM) was 0.851 and the relative viability (NCI-H1755; first compound 0.8 µM) was 0.901. It also gave a relative viability (NCI-H1755; first compound 2.53 µM) of 0.896, a relative viability (BEN; first compound 0.08 µM) of 1.22 and a relative viability (BEN; first compound 0.253 µM) of 0.973. For the same compound, the relative viability (BEN; first compound 0.8 µM) was 0.964, the relative viability (BEN; first compound 2.53 µM) was 1.04 and the relative viability (HARA; first compound 0.08 µM) was 0.994. It also gave a relative viability (HARA; first compound 0.253 µM) of 0.673, a relative viability (HARA; first compound 0.8 µM) of 0.746 and a relative viability (HARA; first compound 2.53 µM) of 0.827. The relative viability (NCI-H1395; first compound 0.08 µM) was 1.23, the relative viability (NCI-H1395; first compound 0.253 µM) was 1.03 and the relative viability (NCI-H1395; first compound 0.8 µM) was 1.41. It also gave a relative viability (NCI-H1395; first compound 2.53 µM) of 0.971, a relative viability (NCI-H2170; first compound 0.08 µM) of 0.825 and a relative viability (NCI-H2170; first compound 0.253 µM) of 0.702. For the same compound, the relative viability (NCI-H2170; first compound 0.8 µM) was 0.757, the relative viability (NCI-H2170; first compound 2.53 µM) was 0.778 and the relative viability (NCI-H1944; first compound 0.08 µM) was 0.827. It also gave a relative viability (NCI-H1944; first compound 0.8 µM) of 0.84, a relative viability (NCI-H1944; first compound 2.53 µM) of 0.824 and a relative viability (NCI-H650; first compound 0.08 µM) of 1.07. It also gave a relative viability (NCI-H650; first compound 0.253 µM) of 1.06, a relative viability (NCI-H650; first compound 0.8 µM) of 1.17 and a relative viability (NCI-H650; first compound 2.53 µM) of 1.11. The relative viability (A-427; first compound 0.08 µM) was 1.1, the relative viability (A-427; first compound 0.253 µM) was 1.05 and the relative viability (A-427; first compound 0.8 µM) was 1.07. For the same compound, the relative viability (A-427; first compound 2.53 µM) was 1.06, the relative viability (SK-LU-1; first compound 0.08 µM) was 1.09 and the relative viability (SK-LU-1; first compound 0.253 µM) was 0.931. The relative viability (SK-LU-1; first compound 0.8 µM) was 1.28, the relative viability (SK-LU-1; first compound 2.53 µM) was 1.18 and the relative viability (NCI-H1793; first compound 0.08 µM) was 0.838. For the same compound, the relative viability (NCI-H1793; first compound 0.253 µM) was 0.618, the relative viability (NCI-H1793; first compound 0.8 µM) was 0.973 and the relative viability (NCI-H1793; first compound 2.53 µM) was 1.08. For the same compound, the relative viability (NCI-H2023; first compound 0.08 µM) was 0.574, the relative viability (NCI-H2023; first compound 0.253 µM) was 0.656 and the relative viability (NCI-H2023; first compound 0.8 µM) was 0.747. It also gave a relative viability (NCI-H2023; first compound 2.53 µM) of 1.12, a relative viability (NCI-H1666; first compound 0.08 µM) of 1 and a relative viability (NCI-H1666; first compound 0.253 µM) of 0.919. For the same compound, the relative viability (NCI-H1666; first compound 0.8 µM) was 0.831, the relative viability (NCI-H1666; first compound 2.53 µM) was 1.07 and the relative viability (LXF-289; first compound 0.08 µM) was 1.11. For the same compound, the relative viability (LXF-289; first compound 0.253 µM) was 1, the relative viability (LXF-289; first compound 0.8 µM) was 1.05 and the relative viability (LXF-289; first compound 2.53 µM) was 1.08.
